Results taken from PMC12650180, “Discovery of Drug-like Inhibitors of the Human Caf1/CNOT7 poly(A)-Selective Nuclease Using Compound Screening” (Biomolecules, 2025).

target: human Caf1/CNOT7 (Homo sapiens, UniProt Q9UIV1); assay: Fluorescence-based Caf1/CNOT7 nuclease activity assay (Flc-RNA substrate, TAMRA-labelled DNA probe); type: biochemical; details: mean ± standard deviation; 0.4 μM Caf1/CNOT7, 0.1 μM Flc-RNA substrate, 15 min preincubation, 60 min at 30 °C
Experimental: Compounds (10 mM in DMSO) were stored in a dry, inert environment at −20 °C in an automated sample management system (comPOUND, TTP Labtech Technology, Melbourn, UK). After dispensing aliquots in 96-well plates, compounds were diluted to 0.5 mM in 20% DMSO/water. Aliquots ([…]; […]) were transferred to black U-well 384-well plates (Greiner Bio-One, Kremsmünster, Austria) using a multichannel pipette. Subsequent screening was carried out as described before with modifications for use with a Biomek 3000 liquid handler (Beckman Coulter, Brea, CA, USA). First, enzyme (8 μL containing 1.0 μM Caf1/CNOT7, 50 mM Tris–HCl pH 7.9, 125 mM NaCl, 5 mM MgCl2, 25% glycerol, 2.5 mM β-mercaptoethanol) was added. After mixing, the mixture was left at room temperature for 15 min before the addition of RNA substrate (8 μL; 0.25 μM Flc-RNA substrate in H2O). The composition of the final reaction mixture was: 0.4 μM Caf1/CNOT7, 0.1 μM Flc-RNA substrate, 20 mM Tris–HCl pH 7.9, 50 mM NaCl, 2 mM MgCl2, 10% glycerol, 1 mM β-mercaptoethanol, 5% DMSO, and 100 μM library compound. After incubation at 30 °C for 60 min, 20 μL probe mix (5 μM DNA probe, 1% SDS, 20 mM Tris–HCl pH 8.0, 0.5 mM EDTA) was added. Fluorescence was measured using a BioTek Synergy HT plate reader using the following filters: 485 ± 20 nm (excitation) and 528 ± 20 nm (emission). Hits were identified following data analysis in Microsoft Excel. Screening data was visualised using GraphPad Prism (version 10.4.0).
Reaction conditions and fluorescence measurements were as described above and before. Non-linear regression was carried out using GraphPad Prism 5.0. IC50 values were typically determined using three independent experiments, each containing three replicates.
To discover new inhibitors of the Caf1/CNOT7 nuclease subunit of the Ccr4–Not complex, we screened a sub-set of the Nottingham Managed Chemical Compound Collection, which contains over 83,000 synthetic compounds that are commercially available and were selected based on chemical diversity and drug-like properties. A representative sub-set of 10,880 compounds was selected and screened in duplicate in a 384-well plate format (Figure 1A). The library compounds were screened using a fluorescence-based activity assay that was developed previously. Briefly, purified Caf1/CNOT7 enzyme was pre-incubated with library compounds. This was followed by the addition of a 5′ fluorescein-labelled RNA oligonucleotide containing a stretch of nine adenosine residues at the 3′ end that served as substrate for Caf1/CNOT7. After incubation, the reaction was terminated and a 3′ TAMRA-labelled DNA probe complementary to the substrate was added. […] However, in case Caf1/CNOT7 was inhibited, the substrate remained intact, resulting in annealing of the DNA probe and quenching of fluorescence due to the close vicinity of the fluorescein and TAMRA fluorophores (Figure 1B).
Figure 3 Determination of the IC50 values of small-molecule inhibitors of Caf1/CNOT7. Compounds were preincubated with Caf1/CNOT7 for 15 min at room temperature, followed by the addition of RNA substrate. After incubation (60 min at 30 °C), reactions were stopped by the addition of SDS and a 5-fold molar excess of DNA probe. The mean values for each independent experiment were plotted (Open square, experiment 1; closed circle, experiment 2; diamond, experiment 3).

Chain of human Caf1/CNOT7 (Q9UIV1 whole entry): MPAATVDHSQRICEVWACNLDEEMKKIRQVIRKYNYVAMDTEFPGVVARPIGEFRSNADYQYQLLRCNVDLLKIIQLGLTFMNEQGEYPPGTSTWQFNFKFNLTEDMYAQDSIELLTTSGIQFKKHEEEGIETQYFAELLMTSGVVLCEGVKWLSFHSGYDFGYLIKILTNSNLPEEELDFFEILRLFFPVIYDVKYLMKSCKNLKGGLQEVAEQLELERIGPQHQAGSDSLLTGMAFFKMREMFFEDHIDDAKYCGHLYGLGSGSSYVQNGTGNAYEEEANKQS

SMILES	IC50 [µM]
Cc1cccc2sc(NC(=O)CCC(=O)c3ccc(F)cc3)nc12 [Compound 8]	18.9 ± 4.3
CC(=O)Nc1cccc(NC2=NN=C(c3cc(C)[nH]c3C)CS2)c1 [Compound 10]	17.3 ± 1.1
Cc1sc2nc(COC(=O)Cn3cc(C(F)(F)F)ccc3=O)nc(N)c2c1C [Compound 16]	122 ± 10.7
O=C(COC(=O)Cc1ccc(-c2ccccc2)cc1)NC(=O)c1cccs1 [Compound 21]	78.3 ± 9.5
CC(=O)c1c(C)[nH]c(C(=O)Nc2nnc(Cc3ccccc3)s2)c1C [Compound 3]	20.7 ± 0.9
Cc1cc(NC(=O)NC2(C(F)(F)F)Oc3ccc(Cl)cc3O2)no1 (centres unmarked) [Compound 4]	16.8 ± 2.1
CC(C)NC(=O)Nc1cccc(C(=O)Nc2ccc3oc(C(F)(F)F)nc3c2)c1 [Compound 13]	14.5 ± 10.7
CCOC(=O)Cc1ncccc1C(=O)Nc1ccc(Br)c(C(F)(F)F)c1 [Compound 18]	57.3 ± 10.1
Cc1ccc(CN(Cc2ccc(C)n2C)C(=O)COc2ccccc2C#N)n1C [Compound 15]	24.4 ± 9.2
Cc1ccc(NC(=O)c2c[nH]nc2-c2ccc(Cl)cc2)nc1 [Compound 2]	19.5 ± 3.4
O=C(Nc1nc(-c2ccc(Cl)s2)cs1)c1ccc(O)nc1 [Compound 19]	161 ± 13.7
CC(C)CCn1c(SCC(=O)NC(N)=O)nc2cc(Cl)ccc2c1=O [Compound 11]	15.6 ± 3.2
O=C(Nc1cc(Br)cnc1O)c1ccc2ccccc2c1 [Compound 20]	256 ± 20.4
Cc1ccc2nc(NC(=O)c3cc(Br)c[nH]3)sc2c1 [Compound 1]	17.8 ± 0.1
O=C(Cc1c[nH]c2ccccc12)OCc1ccc(F)cc1Cl [Compound 5]	17.5 ± 4.2
N#Cc1cccc(NC(=O)C(C#N)c2nc3ccccc3s2)c1 (centres unmarked) [Compound 9]	18.4 ± 5.9
N#Cc1cc(C#N)c(SCc2nnc(-c3cccs3)o2)nc1N [Compound 12]	21.3 ± 4.6
CC(NC(=O)c1ccoc1)C(=O)Nc1cc(-c2cc(Cl)cc(Cl)c2)[nH]n1 (centres unmarked) [Compound 6]	19.7 ± 2.5
O=S(=O)(Nc1ccc(SC(F)F)cc1)c1cnn(-c2ccccc2)c1 [Compound 17]	77.7 ± 0.3
CC(C)c1ccc(-c2nnn(CC(=O)NC(=O)NCc3ccccc3)n2)cc1 [Compound 7]	17.4 ± 2.7
